For assay [1], the system named is HEK293 FOP control reporter cell line. The experiment in a line: HEK293 FOP Assay (FOP control vector luciferase reporter). The conditions noted are these: Homo sapiens. The class given is cell-based. The procedure, abridged:
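Compound series 50 μM to 15 nM, 3.16-fold steps, were diluted in CAFTY buffer (pH 7.4, 2 mM Ca2+, 0.01% BSA) and tested alongside the TOP reporter line. Human Wnt-3a was added at 2500–5 ng/ml in two-fold steps. The control HEK293 line stably holds an FOP vector whose TCF elements are randomized and non-functional.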
For orientation: A reporter such as luciferase makes a cellular process visible.

Another assay addresses T1, TNKS1 (Homo sapiens, UniProt O95271).
T1 sequence (O95271 1-1327): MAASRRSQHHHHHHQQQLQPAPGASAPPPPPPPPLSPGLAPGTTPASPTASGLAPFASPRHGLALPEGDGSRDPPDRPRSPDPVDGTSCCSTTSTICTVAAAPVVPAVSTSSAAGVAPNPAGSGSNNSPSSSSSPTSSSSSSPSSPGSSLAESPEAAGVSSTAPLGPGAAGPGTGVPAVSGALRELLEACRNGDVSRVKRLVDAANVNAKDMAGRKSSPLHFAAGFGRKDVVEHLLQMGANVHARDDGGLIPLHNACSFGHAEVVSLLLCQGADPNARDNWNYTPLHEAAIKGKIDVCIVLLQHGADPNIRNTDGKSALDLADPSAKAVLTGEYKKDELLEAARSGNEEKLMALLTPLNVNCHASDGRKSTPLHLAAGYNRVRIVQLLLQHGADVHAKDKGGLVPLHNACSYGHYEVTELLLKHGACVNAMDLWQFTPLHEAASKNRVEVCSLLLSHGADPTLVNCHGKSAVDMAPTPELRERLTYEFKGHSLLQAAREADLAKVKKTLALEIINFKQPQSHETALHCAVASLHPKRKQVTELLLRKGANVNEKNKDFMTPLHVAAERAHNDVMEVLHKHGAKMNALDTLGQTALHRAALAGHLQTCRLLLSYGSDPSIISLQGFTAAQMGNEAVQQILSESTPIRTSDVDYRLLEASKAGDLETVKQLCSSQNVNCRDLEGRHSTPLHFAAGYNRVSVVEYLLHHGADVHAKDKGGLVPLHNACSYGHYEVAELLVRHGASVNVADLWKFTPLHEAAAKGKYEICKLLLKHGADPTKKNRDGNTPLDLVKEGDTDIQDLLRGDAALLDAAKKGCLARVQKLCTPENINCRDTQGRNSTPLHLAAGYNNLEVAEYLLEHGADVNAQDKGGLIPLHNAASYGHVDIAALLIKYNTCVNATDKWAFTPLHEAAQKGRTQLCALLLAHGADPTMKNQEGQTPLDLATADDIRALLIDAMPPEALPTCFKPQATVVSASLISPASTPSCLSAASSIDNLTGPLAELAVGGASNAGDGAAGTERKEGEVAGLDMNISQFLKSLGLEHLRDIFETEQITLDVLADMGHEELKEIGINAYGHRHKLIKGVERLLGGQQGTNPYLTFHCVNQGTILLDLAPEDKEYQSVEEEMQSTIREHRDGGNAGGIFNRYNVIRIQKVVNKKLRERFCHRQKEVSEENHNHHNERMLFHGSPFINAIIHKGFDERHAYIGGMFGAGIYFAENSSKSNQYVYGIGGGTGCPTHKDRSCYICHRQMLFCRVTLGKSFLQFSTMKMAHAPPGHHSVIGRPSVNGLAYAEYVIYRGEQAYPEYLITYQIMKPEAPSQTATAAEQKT
The experiment in a line: TNKS1 Assay 1 (TNKS1 Histone Ribosylation Assay Kit, biotin-labeled NAD+). Format: biochemical. The conditions noted are these: chemiluminescent readout, 384 well. As to the method: The potency of the compounds according to the invention was assessed by applying an in vitro inhibition assay. The TNKS1 catalyzed NAD^+-dependent ribosylation of a suitable protein substrate was detected using a commercially available biotin/streptavidin binding based assay format [TNKS1 Histone Ribosylation Assay Kit (Biotin-labeled NAD+), Catalog #80579; BPS Bioscience, San Diego, USA]. Here, the incorporation of a biotin-labeled NAD+ during the TNKS1 catalyzed ribosylation reaction was detected with a streptavidin-HRP coupled chemi-luminescent readout. The intensity of the readout signal is proportional to the incorporated NAD^+. Inhibition of TNKS1 leads to a decreased incorporation of NAD^+ and consequently to a lower readout signal intensity. The concentration of a test compound which inhibits the enzyme activity by 50% (corresponds to half of the normed readout signal intensity) is reported as IC50.
The assay was conducted in a 384 well MTP format according to the manufacturer's protocol [bpsbioscience.com/poly-adp-ribose-polymerase/assay-kit/tnks1-histone-ribosylation-assay-kit-biotin-labeled-nad-80579 referencing: Brown, J. A., Marala, R. B. J. Pharmacol. Toxicol. Methods 2002 47:137-41] and using a BMG Pherastar MTP reader [BMG-Labtech, Offenburg, Germany].

Setting [2] is: HEK293 FOP control reporter cells, 16 hours, luciferase, dilution series from 50 μM.
Setting [3] is: HEK293 FOP control reporter cell line, 16 hours incubation, compound dilution series 50 μM to 15 nM.

A word on the IC50: it is the midpoint of a concentration-inhibition curve. Read a high IC50 as weaker potency. Take `CNC(=O)c1nc[nH]c1C(=O)Nc1ccc(NC(=O)c2c(Cl)cccc2Cl)cc1` [Example 26, N^5-{4-[(2,6-dichlorobenzoyl)amino]phenyl}-N^4-methyl-1H-imidazole-4,5-dicarboxamide]: the IC50 is at least 50000 nM in assay [1] (setting [2]), 410 nM at TNKS1 (Table 1) and 400 nM against TNKS1 (first table).

Take `CNC(=O)c1nc[nH]c1C(=O)Nc1ccc(NC(=O)c2ccccc2Cl)cc1` [Example 27, N^5-{4-[(2-chlorobenzoyl)amino]phenyl}-N^4-methyl-1H-imidazole-4,5-dicarboxamide]: the values for the IC50 (in assay [1] (setting [2]); at TNKS1 (Table 1); against TNKS1 (first table)) were at least 50000 nM, 100 nM and 100 nM, respectively.

Regarding `CNC(=O)c1nc[nH]c1C(=O)Nc1ccc(NC(=O)c2ccc(OCCN3CCN(C)CC3)cc2Cl)cc1` [Example 28, N^5-[4-({2-chloro-4-[2-(4-methylpiperazin-1-yl)ethoxy]benzoyl}amino)phenyl]-N^4-methyl-1H-imidazole-4,5-dicarboxamide], the IC50 in assay [1] (setting [3]) was determined as 36000 nM; in assay [1] (setting [2]), 42000 nM; against TNKS1 (Table 1), 70 nM; on TNKS1 (first table), 70 nM.

`O=C(Nc1ccc(NC(=O)c2[nH]cnc2C(=O)NCC(F)(F)F)cc1)c1ccc(F)cc1Cl` [Example 30, N^4-{4-[(2-chloro-4-fluorobenzoyl)amino]phenyl}-N^5-(2,2,2-trifluoroethyl)-1H-imidazole-4,5-dicarboxamide]: the IC50 in assay [1] (setting [2]) is 37500 nM; against TNKS1 (Table 1), 140 nM; at TNKS1 (first table), 140 nM.

For `CNC(=O)c1[nH]cnc1C(=O)Nc1ccc(NC(=O)c2cc(Cl)sc2Cl)cc1` [Example 213, N^4-(4-{[(2,5-dichloro-3-thienyl)carbonyl]amino}phenyl)-N^5-methyl-1H-imidazole-4,5-dicarboxamide], the IC50 in assay [1] (setting [3]) is 8400 nM; at TNKS1 (Table 1), over 100000 nM.

Values taken from patent publication US9884063B2, “Amido-substituted azole compounds” (Bayer Pharma Aktiengesellschaft, priority 2014, dated 2018).
